# Measured values published in patent US20230183239A1, “ECTONUCLEOTIDE PYROPHOSPHATASE-PHOSPHODIESTERASE 1 (ENPP-1) INHIBITORS AND USES THEREOF” (AbbVie Inc., priority 2017, published 2023).
# Experiments:
# Format in all cases: biochemical
# ENPP1 [1] = biological target: T1, ENPP1 (Homo sapiens, UniProt P22413); experiment: ENPP1 enzyme assay with AMP-pNP substrate (hydrolysis of ATP analog); settings: AMP-pNP substrate (ATP analog); Ki from IC50 by Cheng-Prusoff; read-out: ENPP1 Inhibition _AMP-pNP: Ki
# T1 sequence (P22413 1-925): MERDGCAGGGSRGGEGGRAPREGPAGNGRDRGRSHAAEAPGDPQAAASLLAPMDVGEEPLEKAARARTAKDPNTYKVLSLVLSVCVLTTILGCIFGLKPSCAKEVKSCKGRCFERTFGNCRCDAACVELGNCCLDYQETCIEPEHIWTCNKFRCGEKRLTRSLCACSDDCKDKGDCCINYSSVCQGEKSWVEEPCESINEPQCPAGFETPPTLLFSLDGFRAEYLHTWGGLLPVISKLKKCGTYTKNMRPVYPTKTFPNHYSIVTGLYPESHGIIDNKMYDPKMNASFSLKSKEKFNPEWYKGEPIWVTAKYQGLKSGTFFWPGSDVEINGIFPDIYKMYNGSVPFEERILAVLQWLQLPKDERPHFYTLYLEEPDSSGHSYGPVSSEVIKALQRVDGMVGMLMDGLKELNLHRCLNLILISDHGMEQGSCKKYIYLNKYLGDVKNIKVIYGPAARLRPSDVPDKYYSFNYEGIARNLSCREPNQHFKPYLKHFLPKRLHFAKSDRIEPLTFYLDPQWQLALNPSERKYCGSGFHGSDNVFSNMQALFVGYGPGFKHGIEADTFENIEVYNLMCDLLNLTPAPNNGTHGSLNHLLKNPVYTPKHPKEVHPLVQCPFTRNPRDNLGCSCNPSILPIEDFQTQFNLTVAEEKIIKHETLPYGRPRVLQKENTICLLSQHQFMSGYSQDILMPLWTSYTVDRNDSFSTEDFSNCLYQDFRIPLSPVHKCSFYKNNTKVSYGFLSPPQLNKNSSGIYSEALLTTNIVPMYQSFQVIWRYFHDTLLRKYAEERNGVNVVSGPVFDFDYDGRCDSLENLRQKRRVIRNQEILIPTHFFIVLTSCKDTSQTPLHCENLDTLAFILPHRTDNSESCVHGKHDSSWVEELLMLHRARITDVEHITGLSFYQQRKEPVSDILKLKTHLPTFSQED
# How it was run: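 Reactions ran 20 min at 37 °C, pH 8.5 Tris buffer with NaCl, CaCl2, ZnCl2, using 300 µM AMP-pNP and 60 ng/well recombinant human ENPP1; inhibitor range 10 µM–30 pM, duplicates.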
# ENPP1 [2] = biological target: T1, ENPP1; experiment: Indirect quantitation of 2',3'-cGAMP hydrolysis (AMP-Glo Assay kit); settings: cGAMP substrate; Ki from IC50 by Cheng-Prusoff; read-out: ENPP1 Inhibition -cGAMP: Ki
# ENPP1 [3] = biological target: T1, ENPP1; experiment: Substrate selectivity ratio, inhibition of cGAMP hydrolysis versus ATP hydrolysis; settings: ratio Ki AMP-pNP / Ki cGAMP
# Method: The selectivity ratios for inhibition of cGAMP hydrolysis versus ATP hydrolysis were then calculated as follows: […]
Compound,Ki (ENPP1 [1]) [nM],Ki (ENPP1 [2]) [nM],Substrate Selectivity: Ki_AMP-pNP/Ki_cGAMP (ENPP1 [3])
"COc1cc2ncc(C)c(-c3ccc4c(c3)CN(S(N)(=O)=O)CC4)c2cc1OC [Example 60, 7-(6,7-dimethoxy-3-methylquinolin-4-yl)-3,4-dihydroisoquinoline-2(1H)-sulfonamide]",< 100,< 100,16.7
"COc1cc2nccc(Oc3ccc(S(N)(=O)=O)cc3)c2cn1 [Example 393, 4-((7-methoxy-1,6-naphthyridin-4-yl)oxy)benzenesulfonamide]",100 to 1000,< 100,51
"COc1ccc2ncnc(NCc3ccc(S(N)(=O)=O)cc3)c2c1 [Example 306, 4-(((6-methoxyquinazolin-4-yl)amino)methyl)benzenesulfonamide]",100 to 1000,< 100,22.4
"COc1ccc2c(Oc3ccc4c(c3)CCN4S(N)(=O)=O)ccnc2c1 [Example 404, 5-((7-methoxyquinolin-4-yl)oxy)indoline-1-sulfonamide]",100 to 1000,< 100,>103
"COc1ccc2c(-c3ccc4c(c3)CN(S(N)(=O)=O)C4)ccnc2c1 [Example 402, 5-(7-methoxyquinolin-4-yl)isoindoline-2-sulfonamide]",100 to 1000,< 100,46
"COc1cc2ncnc(N3CCC(CCNS(N)(=O)=O)CC3)c2cc1Cl [Example 169, N-(2-(1-(6-chloro-7-methoxyquinazolin-4-yl)piperidin-4-yl)ethyl)sulfamide]",100 to 1000,< 100,6.9
"COc1ccc2c(N3CCc4cc(NS(N)(=O)=O)cc(F)c43)ccnc2c1 [Example 375, N-(7-fluoro-1-(7-methoxyquinolin-4-yl)indolin-5-yl)sulfamide]",< 100,< 100,25
"COc1cc2nccc(N3CC4(C3)CN(S(N)(=O)=O)C4)c2cc1OC [Example 214, 6-(6,7-dimethoxyquinolin-4-yl)-2,6-diazaspiro[3.3]heptane-2-sulfonamide]",> 1000,100 to 1000,> 15.3
"COc1ccc2c(Oc3ncc(NS(N)(=O)=O)cc3C)ccnc2c1 [Example 351, N-(6-((7-methoxyquinolin-4-yl)oxy)-5-methylpyridin-3-yl)sulfamide]",> 1000,< 100,55
"COc1ccc2c(-n3cnc(CNS(N)(=O)=O)c3)ccnc2c1 [Example 385, N-((1-(7-methoxyquinolin-4-yl)-1H-imidazol-4-yl)methyl)sulfamide]",> 1000,< 100,>44
"COc1cc2ncc(C#N)c(N3CCC(CCNS(N)(=O)=O)CC3)c2cn1 [Example 245, N-(2-(1-(3-cyano-7-methoxy-1,6-naphthyridin-4-yl)piperidin-4-yl)ethyl)sulfamide]",> 1000,100 to 1000,>92.6
"COc1ccc2c(Oc3ccc(NS(N)(=O)=O)c(F)c3)ccnc2c1 [Example 297, N-(2-fluoro-4-((7-methoxyquinolin-4-yl)oxy)phenyl)sulfamide]",100 to 1000,< 100,19.5
"COc1ccc2c(-c3ccc(CNS(N)(=O)=O)cc3)c(C#N)cnc2c1 [Example 244, N-(4-(3-cyano-7-methoxyquinolin-4-yl)benzyl)sulfamide]",100 to 1000,< 100,53.0
"NS(=O)(=O)N1CCC2(CCN(c3ncnc4cc(F)ccc34)CC2)C1 [Example 250, 8-(7-fluoroquinazolin-4-yl)-2,8-diazaspiro [4.5] decane-2-sulfonamide]",> 1000,< 100,> 89.3
"N#Cc1cnc2cc(OC(F)F)ccc2c1-c1ccc2c(c1)CN(S(N)(=O)=O)CC2 [Example 262, 7-(3-cyano-7-(difluoromethoxy)quinolin-4-yl)-3,4-dihydroisoquinoline-2(1H)-sulfonamide]",> 1000,100 to 1000,>173
"COc1cc2ncc(C(N)=O)c(N3CCC(CCNS(N)(=O)=O)CC3)c2cc1OC [Example 19, 6,7-dimethoxy-4-(4-(2-(sulfamoylamino)ethyl)piperidin-1-yl)quinoline-3-carboxamide]",> 1000,< 100,>95.8
"COc1ccc2c(N3CCC4(CC3)CCN(S(N)(=O)=O)C4)ccnc2c1 [Example 363, 8-(7-methoxyquinolin-4-yl)-2,8-diazaspiro[4.5]decane-2-sulfonamide]",100 to 1000,< 100,49
"COc1ccc2ncc(C#N)c(-c3ccc4c(c3)CN(S(N)(=O)=O)CC4)c2c1 [Example 237, 7-(3-cyano-6-methoxyquinolin-4-yl)-3,4-dihydroisoquinoline-2(1H)-sulfonamide]",> 1000,< 100,>371
"COc1cc2ncnc(N3CCC4(CCNC4)CC3)c2cc1OC [Example 274, 8-(6,7-dimethoxyquinazolin-4-yl)-2,8-diazaspiro[4.5]decane]",> 1000,100 to 1000,>6.4
"COc1ccc2c(Oc3ccc(S(N)(=O)=O)cc3)c(C)cnc2c1 [Example 359, 4-((7-methoxy-3-methylquinolin-4-yl)oxy)benzene sulfonamide]",100 to 1000,< 100,54
"COc1cc2ncnc(N3CCC(CCNS(=O)(=O)C(F)F)CC3)c2cc1OC [Example 208, N-(2-(1-(6,7-dimethoxyquinazolin-4-yl)piperidin-4-yl)ethyl)-1,1-difluoromethanesulfonamide]",> 1000,< 100,> 16.4
"COc1cc2ncn(-c3ccc(CCNS(N)(=O)=O)cc3)c2cc1OC [Example 217, N-(4-(5,6-dimethoxy-1H-benzo[d]imidazol-1-yl)phenethyl)sulfamide]",> 1000,100 to 1000,> 18.2
"COc1ccc2c(-c3ccc4c(c3F)CN(S(N)(=O)=O)CC4)ccnc2c1 [Example 410, 8-fluoro-7-(7-methoxyquinolin-4-yl)-3,4-dihydroisoquinoline-2(1H)-sulfamide]",100 to 1000,< 100,>42
"NS(=O)(=O)c1ccc(CNc2ncnc3cc(F)ccc23)cc1 [Example 304, 4-(((7-fluoroquinazolin-4-yl)amino)methyl)benzenesulfonamide]",> 1000,< 100,>34.0
"COc1cc2ncnc(-c3ccc(CNS(N)(=O)=O)cc3)c2cc1OC [Example 144, N-(4-(6,7-dimethoxyquinazolin-4-yl)benzyl)sulfamide]",100 to 1000,< 100,189.2
"COc1ccc2c(Nc3ccc(NS(N)(=O)=O)cc3)ccnc2c1F [Example 269, N-(4-((8-fluoro-7-methoxyquinolin-4-yl)amino)phenyl)sulfamide]",100 to 1000,< 100,>7.1
